Test results as given in patent US9580411B2, “Substituted sulfonamide compounds” (Hoffmann-La Roche Inc., priority 2012, dated 2017).

Target: T1, hTRPA1 (Homo sapiens (Human), UniProt O75762)
Experiment: IC50 determination on human TRPA1 channel, Hamamatsu FDSS calcium fluorescence, CHO cells
Type: cell-based
Settings: CHO cells expressing human TRPA1; block of cinnamaldehyde induced calcium influx; Hill coefficient fixed to 1.5; read-out: hTRPA1 AUC IC50
Method: IC50s (effective concentration) of compounds on the human TRPA1 channel were determined using a Hamamatsu FDSS fluorescence plate reader. CHO cells expressing human TRPA1 were plated into 384-well plates, incubated overnight at 37° C., and loaded with BD calcium indicator dye for 1 hr at 37° C. followed by 15 minutes at room temperature. The assay buffer was Hank's Balanced Salt Solution (HBSS) containing 20 mM HEPES (pH readjusted to 7.4) along with 0.02% BSA.
Following dye load and plate cool down, compounds were added to the cells using the FDSS while monitoring fluorescence to determine whether any of the test compounds have TRPA1 agonist activity. Plates were then incubated with compound for 20 minutes at room temperature prior to adding agonist. Following this incubation, […] cinnamaldehyde was added to all wells of the plate and block of this cinnamaldehyde induced calcium influx was measured.
Fixing the Hill coefficient will generally reduce variability of the IC50 determination. The IC50s were examined by eye to make sure the MIN and MAX points were set correctly prior to validation of the results.

T1 sequence (O75762 whole entry): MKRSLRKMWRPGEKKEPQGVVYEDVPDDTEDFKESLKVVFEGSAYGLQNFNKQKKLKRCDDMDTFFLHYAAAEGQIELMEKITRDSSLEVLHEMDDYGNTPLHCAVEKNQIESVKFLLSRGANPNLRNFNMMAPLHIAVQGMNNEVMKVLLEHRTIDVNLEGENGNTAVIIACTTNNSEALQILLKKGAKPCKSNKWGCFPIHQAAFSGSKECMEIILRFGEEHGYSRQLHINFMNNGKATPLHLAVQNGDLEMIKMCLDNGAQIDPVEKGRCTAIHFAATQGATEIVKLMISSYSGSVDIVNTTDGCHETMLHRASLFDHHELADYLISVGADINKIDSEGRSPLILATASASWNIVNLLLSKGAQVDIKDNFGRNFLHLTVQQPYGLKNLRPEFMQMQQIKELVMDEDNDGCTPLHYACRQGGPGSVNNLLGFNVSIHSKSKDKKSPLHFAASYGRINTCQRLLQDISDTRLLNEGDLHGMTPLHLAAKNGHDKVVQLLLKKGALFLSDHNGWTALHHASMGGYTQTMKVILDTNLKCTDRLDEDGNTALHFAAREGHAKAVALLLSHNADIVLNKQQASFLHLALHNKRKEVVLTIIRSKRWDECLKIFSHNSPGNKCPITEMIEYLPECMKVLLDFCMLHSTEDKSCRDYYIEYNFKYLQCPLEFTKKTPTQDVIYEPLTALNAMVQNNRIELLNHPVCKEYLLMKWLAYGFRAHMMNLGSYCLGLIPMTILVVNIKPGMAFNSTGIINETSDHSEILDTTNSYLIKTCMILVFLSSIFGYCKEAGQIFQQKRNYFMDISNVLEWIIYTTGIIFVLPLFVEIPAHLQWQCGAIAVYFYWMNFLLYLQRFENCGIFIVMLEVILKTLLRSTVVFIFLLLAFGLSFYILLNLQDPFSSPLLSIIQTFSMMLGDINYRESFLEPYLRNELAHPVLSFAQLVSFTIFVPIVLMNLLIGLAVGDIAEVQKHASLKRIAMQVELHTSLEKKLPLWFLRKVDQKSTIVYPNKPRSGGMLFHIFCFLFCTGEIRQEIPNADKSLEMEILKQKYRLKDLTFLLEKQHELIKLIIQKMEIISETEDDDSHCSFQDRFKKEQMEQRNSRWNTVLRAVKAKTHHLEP

Row | Structure (SMILES) | IC50 [µM]
1 | CC(C)N(CC(=O)NCc1cccc(-c2cnc(N3CCC[C@H]3C)nc2)c1)S(=O)(=O)c1ccc(F)cc1 (single isomer, unassigned) [79-(R)] | 0.055
2 | CC(C)N(CC(=O)NCc1cccc(-c2cnc(N3CCC[C@@H]3C)nc2)c1)S(=O)(=O)c1ccc(F)cc1 (single isomer, unassigned) [79-(S)] | 0.038
3 | CC(C)N(CC(=O)NCc1cccc(N2CCCC2)c1)S(=O)(=O)c1ccc(F)cc1 [Example 77, 2-(4-fluoro-N-isopropylphenylsulfonamido)-N-(3-(pyrrolidin-1-yl)benzyl)acetamide] | 0.883
4 | CC(C)N(CC(=O)NCc1cccc(C2CC2)c1)S(=O)(=O)c1ccc(F)cc1 [Example 78, N-(3-cyclopropylbenzyl)-2-(4-fluoro-N-isopropylphenylsulfonamido)acetamide] | 1
5 | CC(C)N(CC(=O)NCc1cc(N2CCC(C(F)(F)F)CC2)ncn1)S(=O)(=O)c1ccc(F)cc1 [Example 80, 2-(4-Fluoro-N-isopropylphenylsulfonamido)-N-((6-(4-(trifluoromethyl)piperidin-1-yl)pyrimidin-4-yl)methyl)acetamide] | 0.251
6 | CC(C)N(CC(=O)NCc1cc(N2CCC(F)(F)CC2)ncn1)S(=O)(=O)c1ccc(F)cc1 [Example 81, N-((6-(4,4-Difluoropiperidin-1-yl)pyrimidin-4-yl)methyl)-2-(4-fluoro-N-isopropylphenylsulfonamido)acetamide] | 3
7 | CC(C)N(CC(=O)NCc1cccc(-c2ccc(C(F)(F)F)cc2)c1)S(=O)(=O)c1ccn(C)n1 [Example 82, 2-(N-Isopropyl-1-methyl-1H-pyrazole-3-sulfonamido)-N-((4′-(trifluoromethyl)biphenyl-3-yl)methyl)acetamide] | 2.4
8 | [2H]C([2H])(C(=O)NCc1cc(-c2ccc(C(F)(F)F)nc2)ncn1)N(C(C)C)S(=O)(=O)c1ccc(F)cc1 [Example 83, 2,2-Dideuterio-2-(4-fluoro-N-isopropylphenylsulfonamido)-N-((6-(6-(trifluoromethyl)pyridin-3-yl)pyrimidin-4-yl)methyl)acetamide] | 0.058
9 | CC(C)N(C1(C(=O)NCc2cc(-c3ccc(C(F)(F)F)nc3)ncn2)CC1)S(=O)(=O)c1ccc(F)cc1 [Example 84, 1-(4-Fluoro-N-isopropylphenylsulfonamido)-N-((6-(6-(trifluoromethyl)pyridin-3-yl)pyrimidin-4-yl)methyl)cyclopropanecarboxamide] | 0.029
10 | O=C(CN(c1ccc(F)cc1)S(=O)(=O)c1ccc(F)cc1)NCc1cc(-c2ccc(C(F)(F)F)nc2)ncn1 [Example 86, 2-(4-fluoro-N-(4-fluorophenyl)phenylsulfonamido)-N-((6-(6-(trifluoromethyl)pyridin-3-yl)pyrimidin-4-yl)methyl)acetamide] | 0.009

Target: T1, hTRPA1
Experiment: Dose response calcium flux assay (FLIPR), ChanTest hTRPA1-CHO stably transfected cell line
Type: cell-based
Settings: CHO-K1 Tet-On human TRPA1 cells, cinnamaldehyde agonist (final 100 uM)
Procedure, shortened: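 Doxycycline-induced CHO-K1 Tet-On hTRPA1 cells, assayed 24 h post induction, Cal-3 dye loaded. Compounds (top 20 μM 3-fold or 30 μM 2-fold, 11 steps) preincubated 30 min at room temperature, then 100 μM cinnamaldehyde (final) added. FLIPR peak fluorescence increase measured against per-well baseline.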

Row | IC50 [µM] | Structure (SMILES)
11 | 0.02 | CC(C)N(CC(=O)NCc1cc(-c2ccc(C(F)(F)F)nc2)ncn1)S(=O)(=O)c1ccc(Cl)s1 [Example 76, 2-[(5-Chloro-thiophene-2-sulfonyl)-isopropyl-amino]-N-[6-(6-trifluoromethyl-pyridin-3-yl)-pyrimidin-4-ylmethyl]-acetamide]
